Experiments:
iNOS [1] = tested on: iNOS; set-up: method as in PMID 23774887; details: LPS-stimulated RAW264.7 macrophage cells; cited from earlier work
RAW 264.7 cells = assay: Survival rate of RAW 264.7 cells by MTT assay; type: cell-based; details: LPS-induced RAW 264.7 cells, 24 h, 20 μM
Method: (§1) Anti-inflammatory effects were analyzed in RAW 264.7 cells, which were cultured in DMEM with 10% FBS, 1% L-glutamine, and 1% penicillin-streptomycin, and maintained at 37 °C in a 5% CO2 atmosphere. RAW 264.7 cells (4.0 × 10^5 cells/mL) were seeded in 96-well plates and co-treated with LPS (500 ng/mL) and test samples. After 24 h, NO production was determined by Griess reagent, and the absorption was detected at 530 nm. The percentage inhibition of NO production was presented as the anti-inflammatory activity. PGE2 concentrations in cell culture media were determined with a PGE2 enzyme-linked immunosorbent assay (ELISA) kit (Enzo Life Sciences, Farmingdale, NY, USA). The survival rate of RAW 264.7 cells was detected using an MTT assay.

A375 melanoma cells = tested on: A375 melanoma cells; set-up: method as in PMID 23880933; details: cited from earlier work
[2] = tested on: LPS-induced RAW 264.7 cells (NO production); assay: NO production (Griess) in LPS-induced RAW 264.7 cells; type: cell-based
Method: as §1

iNOS [3] = tested on: iNOS; set-up: method as in PMID 23675440; details: LPS-stimulated murine macrophages; cited from earlier work
COX-2 [4] = tested on: COX-2; set-up: method as in PMID 23675440; details: LPS-stimulated murine macrophages; cited from earlier work
COX-2 [5] = tested on: COX-2; set-up: method as in PMID 23774887; details: LPS-stimulated RAW264.7 macrophage cells; cited from earlier work

Row | Molecule | accumulation of the proinflammatory iNOS protein (iNOS [1]) | Cell Viability (%) (RAW 264.7 cells) | proliferation and migration of A375 melanoma cells (A375 melanoma cells) | inhibitory effects on NO expression [2] | NO Inhibition (%) ([2]; 24 h, 20 μM) | expression of induced nitric oxide synthase (iNOS) (iNOS [3]) | expression of cyclooxygenase (COX)-2 (COX-2 [4]) | accumulation of COX-2 protein (COX-2 [5])
1 | sinulariolide [SC-4] | significantly inhibit | 98.8 ± 1.2% | inhibits the proliferation and migration | no inhibitory effects | −4.3 ± 1.6% | – | – | –
2 | C=C1C(=O)O[C@]2(C)CC[C@@H]1C[C@@H]1O[C@@]1(C)CC/C=C(\C)CC[C@H]2OC(C)=O [Ya-s11, 11-Episinulariolide acetate] | significantly inhibit | – | – | – | – | inhibits the expression | inhibits the expression | could reduce
